Laboratory results published in PMC11583123, “Linker Chemistry and Connectivity Fine-Tune the Immune Response and Kinetic Solubility of Conjugated NOD2/TLR7 Agonists” (Bioconjugate Chemistry, 2024).

Legend:
human TLR7 = target: T1, human TLR7 (Homo sapiens, UniProt Q9NYK1); assay: HEK-Blue TLR7 NF-κB SEAP reporter assay; assay type: cell-based; settings: HEK-Blue TLR7 cells
T1 construct: host or cells: HEK-Blue TLR7 (HEK293-derived)
T1 sequence (Q9NYK1 27-1049): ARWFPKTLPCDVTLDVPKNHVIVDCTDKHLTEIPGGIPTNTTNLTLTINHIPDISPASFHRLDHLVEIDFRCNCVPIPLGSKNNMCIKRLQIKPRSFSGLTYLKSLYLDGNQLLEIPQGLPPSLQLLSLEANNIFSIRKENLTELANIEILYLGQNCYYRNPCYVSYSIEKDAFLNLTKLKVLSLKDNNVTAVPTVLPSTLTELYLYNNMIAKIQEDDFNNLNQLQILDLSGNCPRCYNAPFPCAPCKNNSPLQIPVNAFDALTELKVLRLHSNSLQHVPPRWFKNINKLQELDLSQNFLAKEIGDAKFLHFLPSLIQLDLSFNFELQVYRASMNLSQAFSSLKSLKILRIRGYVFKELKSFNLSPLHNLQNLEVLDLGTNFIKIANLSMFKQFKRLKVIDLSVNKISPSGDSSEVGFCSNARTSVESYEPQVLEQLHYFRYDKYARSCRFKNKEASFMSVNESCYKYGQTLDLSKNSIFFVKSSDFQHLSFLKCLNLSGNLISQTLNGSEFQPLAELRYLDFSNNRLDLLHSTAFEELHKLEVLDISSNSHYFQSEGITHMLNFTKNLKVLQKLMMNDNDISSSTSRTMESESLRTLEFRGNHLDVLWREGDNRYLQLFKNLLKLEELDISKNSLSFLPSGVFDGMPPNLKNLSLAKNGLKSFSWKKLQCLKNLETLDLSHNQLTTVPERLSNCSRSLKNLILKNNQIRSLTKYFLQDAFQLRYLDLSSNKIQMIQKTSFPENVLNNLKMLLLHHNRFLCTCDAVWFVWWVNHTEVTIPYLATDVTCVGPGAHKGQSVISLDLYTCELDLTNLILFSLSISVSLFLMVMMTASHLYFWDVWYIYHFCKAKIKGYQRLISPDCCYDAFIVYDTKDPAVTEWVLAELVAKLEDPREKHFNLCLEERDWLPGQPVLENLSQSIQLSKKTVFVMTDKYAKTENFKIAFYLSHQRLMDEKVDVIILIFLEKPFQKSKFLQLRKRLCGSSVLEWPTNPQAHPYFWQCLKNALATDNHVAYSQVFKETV
Description: (§1) The building blocks and synthesized conjugates were initially assessed for their receptor-specific activities toward NOD2, TLR7 and TLR8 using the commercially available HEK-Blue NOD2, TLR7 and TLR8 reporter cell lines. These cell lines were derived from HEK293 cells by cotransfection of human NOD2/TLR7/TLR8 and an NF-κB-inducible secreted embryonic alkaline phosphatase (SEAP). Activation of NOD2/TLR7/TLR8, and subsequently of NF-κB, leads to the expression and secretion of SEAP, the levels of which can be quantified colorimetrically. […]
(§2) 3.1. Hek-Blue NOD2, TLR7 and TLR8 cells.
(§3) HEK-Blue NOD2, TLR7, and TLR8 cells (Invivogen, San Diego, CA, USA) were cultured according to the manufacturer instructions in Dulbecco’s modified Eagle’s medium (Sigma-Aldrich, St. Louis, MO, USA) supplemented with 10% heat-inactivated fetal bovine serum (Gibco), 2 mM L-glutamine (Sigma-Aldrich), 100 U/mL penicillin (Sigma-Aldrich), 100 µg/mL streptomycin (Sigma-Aldrich), and 100 µg/mL Normocin (Invivogen) for two passages. All subsequent passages of NOD2 and TLR8 cells were cultured in medium additionally supplemented with 100 µg/mL Zeocin and 30 µg/mL Blasticidin (Invivogen) and of TLR7 cells with 100 µg/mL Zeocin and 10 µg/mL Blasticidin. […]
(§4) The tested compounds were dissolved in DMSO and further diluted in culture medium to the desired final concentrations, such that the final DMSO concentration never exceeded 0.1%. […]
(§5) 3.4 NOD2/TLR7/TLR8 NF-kB reporter assay
(§6) HEK-Blue NOD2 cells (25,000 cells/well), TLR7 and TLR8 cells (40,000 cells/well) were seeded in 96-well plates in 100 µL HEK-Blue detection medium (Invivogen, San Diego, CA, USA) and treated with […]
(§7) corresponding vehicle (0.1% DMSO). After 18 h of incubation (37 °C, 5% CO2), secreted embryonic

[1] = Kinetic solubility in PBS (UHPLC, method of Hoelke et al.); assay type: physicochemical; settings: PBS, 5% DMSO
Procedure: Second, the kinetic solubility of all individual building blocks (compounds 4-7) and conjugates was determined (results are listed in Table 1) in order to highlight how fine-tuning of linker traits can impact this physicochemical property. Kinetic solubility refers to the maximum solubility of a compound when it precipitates from a supersaturated solution, which is metastable and not in equilibrium; it was measured using the method described by Hoelke et al.[34] The length and composition of the linker as well as linkage site are important for activity and physicochemical characteristics of conjugates, which in turn affect their pharmacokinetic profiles. In general, the benzylic COOH was exploited exclusively as the linker attachment site in TLR7 agonist-featuring conjugates, while two potential linkage sites were considered in the structure of NOD2 agonist. […] In conjugates 22-24 and 29, the moieties were connected via the γ-COOH group of the NOD2 agonist. […] It has to be kept in mind that among the polyalkylethers, the structural requirements for aqueous solubility are poised toward the (−OCH2CH2−)n unit while (−OCH2CH2CH2−)n is not beneficial in this respect.[35] […]
suspension was filtered through a syringe filter (0.45 μm), diluted 2.25-fold with acetonitrile, and analyzed with UHPLC. The solubility was quantified with a five-point calibration curve from 500 to 0.8 μM generated by dilution of the original DMSO solution into a 1:1 mixture of acetonitrile and PBS. The content of DMSO in all solutions was fixed to 5% by adding the respective amounts of DMSO. The column used was Waters Acquity UPLC BEH C18 (1.7 μm, 2.1 × 50 mm). The eluent was a mixture of 0.1% TFA in water (A) and acetonitrile (B), with a gradient of (%B): 0−6 min, 5−95%; 6−8 min, 95%; 8−8.5 min, 95−5%. The column was thermostated at 40 °C.
3.1. Hek-Blue NOD2, TLR7 and TLR8 cells. […]
(BioTek Synergy microplate reader; Winooski, VT, USA). EC50 values were calculated using Prism

human NOD2 = target: T2, human NOD2 (Homo sapiens, UniProt Q9HC29); assay: HEK-Blue NOD2 NF-κB SEAP reporter assay; assay type: cell-based; settings: HEK-Blue NOD2 cells
T2 construct: host or cells: HEK-Blue NOD2 (HEK293-derived)
T2 sequence (Q9HC29 whole entry): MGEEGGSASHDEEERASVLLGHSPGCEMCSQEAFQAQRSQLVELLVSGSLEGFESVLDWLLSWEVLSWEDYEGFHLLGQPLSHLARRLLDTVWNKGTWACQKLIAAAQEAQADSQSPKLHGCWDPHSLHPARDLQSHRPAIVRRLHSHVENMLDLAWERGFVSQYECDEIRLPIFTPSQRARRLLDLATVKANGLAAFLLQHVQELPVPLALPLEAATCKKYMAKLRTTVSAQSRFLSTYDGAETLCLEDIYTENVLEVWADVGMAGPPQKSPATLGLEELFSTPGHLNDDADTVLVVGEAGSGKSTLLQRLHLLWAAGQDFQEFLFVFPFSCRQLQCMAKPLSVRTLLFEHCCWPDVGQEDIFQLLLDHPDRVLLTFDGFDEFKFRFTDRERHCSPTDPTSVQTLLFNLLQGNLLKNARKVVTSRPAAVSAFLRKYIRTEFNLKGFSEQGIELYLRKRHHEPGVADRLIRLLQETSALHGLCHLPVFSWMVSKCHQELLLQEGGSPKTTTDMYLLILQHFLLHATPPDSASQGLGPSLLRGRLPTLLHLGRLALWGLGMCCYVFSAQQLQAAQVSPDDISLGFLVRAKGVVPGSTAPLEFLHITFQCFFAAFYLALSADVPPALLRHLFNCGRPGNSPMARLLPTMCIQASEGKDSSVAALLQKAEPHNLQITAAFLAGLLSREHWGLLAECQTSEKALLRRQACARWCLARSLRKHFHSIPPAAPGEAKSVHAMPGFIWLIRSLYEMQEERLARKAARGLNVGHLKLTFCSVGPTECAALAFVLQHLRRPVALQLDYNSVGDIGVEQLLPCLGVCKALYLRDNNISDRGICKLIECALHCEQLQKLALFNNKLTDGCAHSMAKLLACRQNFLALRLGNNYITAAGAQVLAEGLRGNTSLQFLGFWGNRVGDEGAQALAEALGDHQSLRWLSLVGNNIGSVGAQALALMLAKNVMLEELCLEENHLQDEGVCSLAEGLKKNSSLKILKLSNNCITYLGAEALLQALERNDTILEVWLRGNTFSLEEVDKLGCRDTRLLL
Description: as §1, §2, §3, §4, §5, §6, §7

[2] = 18 h, eight concentrations (1 nM to 10 μM), mean ± SEM
[3] = aqueous with cosolvent or surfactant or cyclodextrin, kinetic from dmso stock

CCOCc1nc2c(NC(=O)CCCCCNC(=O)CC[C@@H](NC(=O)[C@@H](NC(=O)CNC(=O)/C=C/c3ccc(O)c(OC)c3)C(C)C)C(=O)OCC)nc3ccccc3c2n1CC(C)(C)O [compound 32]
EC50 (human TLR7; [2]): > 10 µM
TLR7 agonistic activity (in words) (human TLR7; up to 10 μM): devoid of TLR7 agonistic activity
solubility kinetic [1]: 437.3 µM
solubility kinetic [1, 3]: 437 µM
EC50 (human NOD2): 7.2 µM
EC50 (human NOD2; [2]): 7.23 ± 0.499 µM

CCOCc1nc2c(N)nc3ccccc3c2n1CC(C)(C)NC(=O)CCCCCNC(=O)CC[C@@H](NC(=O)[C@@H](NC(=O)CNC(=O)/C=C/c1ccc(O)c(OC)c1)C(C)C)C(=O)OCC [compound 33]
EC50 (human TLR7): 5.3 µM
EC50 (human TLR7; [2]): 5.29 ± 1.5 µM
solubility kinetic [1]: 404.1 µM
solubility kinetic [1, 3]: 404 µM
EC50 (human NOD2; [2]): > 10 µM
